Laboratory results: article PMC4513247 (Molecular pharmacology, 2010)
Where two headings read alike, the source gives them in different places.

Assays:
NET = NET versus SERT; no reference given; cited from earlier work
DAT [1] = target: T1, DAT (Homo sapiens, UniProt Q01959); details: DAT versus SERT; no reference given; cited from earlier work
DAT [2] = target: T1, DAT; format: binding; details: ~10 nM [3H]WIN35,428, fixed concentrations of carbamazepine
SERT^WT = SERT^WT (Homo sapiens, UniProt P31645); format: binding
NCCc1c[nH]c2ccc(O)cc12 = assay: cells, lysate or membranes; details: other: SERT^WT; [3H]5-HT saturation uptake, HEK293 cells
[3] = SERT, ~2 nM [3H]imipramine, fixed concentrations of carbamazepine

Sequence of SERT^WT (P31645 whole entry): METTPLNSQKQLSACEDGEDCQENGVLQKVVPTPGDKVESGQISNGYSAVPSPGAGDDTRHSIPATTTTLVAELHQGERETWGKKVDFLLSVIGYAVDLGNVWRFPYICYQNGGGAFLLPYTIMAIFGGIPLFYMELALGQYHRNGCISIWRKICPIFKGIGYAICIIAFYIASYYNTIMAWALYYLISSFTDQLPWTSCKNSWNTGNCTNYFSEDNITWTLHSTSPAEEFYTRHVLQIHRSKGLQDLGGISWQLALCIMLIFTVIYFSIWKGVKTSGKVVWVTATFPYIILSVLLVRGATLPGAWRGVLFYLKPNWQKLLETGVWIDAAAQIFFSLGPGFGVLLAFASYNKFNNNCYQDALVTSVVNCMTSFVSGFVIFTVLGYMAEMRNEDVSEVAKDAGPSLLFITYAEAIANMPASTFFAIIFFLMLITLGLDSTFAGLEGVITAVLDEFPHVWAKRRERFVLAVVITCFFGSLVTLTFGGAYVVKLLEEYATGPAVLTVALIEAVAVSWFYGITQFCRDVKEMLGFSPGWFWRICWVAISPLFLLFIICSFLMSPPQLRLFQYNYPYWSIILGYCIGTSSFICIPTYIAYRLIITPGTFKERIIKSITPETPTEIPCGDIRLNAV
T1 sequence (Q01959 whole entry, species assumed): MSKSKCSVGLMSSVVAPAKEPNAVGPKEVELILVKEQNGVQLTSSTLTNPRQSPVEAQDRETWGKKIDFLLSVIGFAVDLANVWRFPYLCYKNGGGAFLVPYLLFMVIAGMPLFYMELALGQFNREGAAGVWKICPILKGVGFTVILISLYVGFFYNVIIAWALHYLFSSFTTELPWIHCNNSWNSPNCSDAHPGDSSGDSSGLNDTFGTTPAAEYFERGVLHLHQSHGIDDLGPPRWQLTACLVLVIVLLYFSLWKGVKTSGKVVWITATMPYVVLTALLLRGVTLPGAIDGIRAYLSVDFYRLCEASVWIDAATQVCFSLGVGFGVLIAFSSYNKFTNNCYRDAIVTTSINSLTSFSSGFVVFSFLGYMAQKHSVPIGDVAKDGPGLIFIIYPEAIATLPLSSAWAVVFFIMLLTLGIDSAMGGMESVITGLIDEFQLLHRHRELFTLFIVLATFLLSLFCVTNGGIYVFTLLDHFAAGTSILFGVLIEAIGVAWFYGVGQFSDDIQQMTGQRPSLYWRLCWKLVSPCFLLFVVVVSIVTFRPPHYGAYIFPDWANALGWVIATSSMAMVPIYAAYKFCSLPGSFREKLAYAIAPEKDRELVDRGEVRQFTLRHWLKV

CN(C)CCCN1c2ccccc2CCc2ccccc21 [imipramine]
affinity lower than for SERT (NET): approximately 10 fold
affinity lower than for SERT (DAT [1]): ~1000 fold

ibogaine
binding together with carbamazepine (Dixon plot of [3H]WIN35,428 binding) (DAT [2]): intersected
binding together with carbamazepine (Dixon plot of [3H]imipramine binding) (SERT^WT; [3]): intersected

CC(N)Cc1ccc(Cl)cc1 (stereo not shown) [para-chloroamphetamine]
binding together with carbamazepine (Dixon plot of [3H]imipramine binding) (SERT^WT; [3]): mutually exclusive

CN[C@@H](C)Cc1ccc2c(c1)OCO2 [MDMA, s-(+)-3,4-methylenedioxy-methamphetamine]
binding together with carbamazepine (Dixon plot of [3H]imipramine binding) (SERT^WT): mutually exclusive

SERT^WT (Homo sapiens)
Km (NCCc1c[nH]c2ccc(O)cc12): 1.2 ± 0.8 µM
